Assay results from patent publication US6472348B1, “Pyridone derivatives and herbicides” (Kumiai Chemical Industry Co., Ltd., priority 1996, dated 2002).

Assays:
rice flatsedge (Ci) [1] = assay: Test Example 2: herbicidal effects by upland field soil treatment; type: in vivo; conditions: 100 g of the active ingredient per 10 ares;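 note: grade of growth control; 5 = at least 90%; 4 = 70 to 90%; 3 = 50 to 70%; 2 = 30 to 50%; 1 = 10 to 30%; 0 = under 10%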
Excerpt: (§1) (Test on Herbicidal Effects by Upland Field Soil Treatment)

pale smartweed (Po) [2] = assay: as above; type: in vivo; conditions: 100 g of the active ingredient per 10 ares
Excerpt: as §1

Digitaria ciliaris (Di) = assay: as above; type: in vivo; conditions: 100 g of the active ingredient per 10 ares;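 note: grade of growth control; 5 = at least 90%; 4 = 70 to 90%; 3 = 50 to 70%; 2 = 30 to 50%; 1 = 10 to 30%; 0 = under 10%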
Excerpt: as §1

slender amaranth (Am) [3] = assay: as above; type: in vivo; conditions: 100 g of the active ingredient per 10 ares
Excerpt: as §1

barnyardgrass (Ec) [4] = assay: as above; type: in vivo; conditions: 100 g of the active ingredient per 10 ares
Excerpt: as §1

[5] = tested on: common lambsquarters (Ch); assay: as above; type: in vivo; conditions: 100 g of the active ingredient per 10 ares
Excerpt: as §1

monochoria (Mo) = assay: Test Example 1: herbicidal effects by paddy field soil treatment; type: in vivo; conditions: 100 g of the active ingredient per 10 ares, 21st day after the application, index 0-5 of Table 47;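 note: grade of growth control; 5 = at least 90%; 4 = 70 to 90%; 3 = 50 to 70%; 2 = 30 to 50%; 1 = 10 to 30%; 0 = under 10%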
Summary of the method: (§2)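 Herbicidal effect was scored against a graded standard 21 days after treatment. Seeds were sown in puddled, leveled paddy soil flooded to 3 cm depth, and the active ingredient was applied at 100 g per 10 ares before greenhouse culture.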

bulrush (Sc) = assay: as above; type: in vivo; conditions: 100 g of the active ingredient per 10 ares, 21st day after the application, index 0-5 of Table 47;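 note: grade of growth control; 5 = at least 90%; 4 = 70 to 90%; 3 = 50 to 70%; 2 = 30 to 50%; 1 = 10 to 30%; 0 = under 10%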
Summary of the method: as §2

barnyardgrass (Ec) [6] = assay: as above; type: in vivo; conditions: 100 g of the active ingredient per 10 ares, 21st day after the application, index 0-5 of Table 47
Summary of the method: as §2

pale smartweed (Po) [7] = assay: Test Example 11: crop plant selectivity by upland field foliage treatment (corn), herbicidal effects; type: in vivo; set-up: scale not given here; conditions: upland field foliage treatment (corn test), dose 1.6 g ai/10a, 14th day after treatment
Procedure: (§3) (Test on Crop Plant Selectivity by Upland Field Foliage Treatment)
(§4) In a plastic pot (surface area: 600 cm^2) filled with sand, corn (Ze), pale smartweed (Po), slender amaranth (Am), common lambsquarters (Ch) and China jute (Ab) were sown and cultured in a green house for 2 weeks. […] The plants were then cultured in a green house, and the evaluation of the herbicidal effects and phytotoxicity was conducted on the 14th day after the treatment in accordance with the standards as identified in Table 47.

slender amaranth (Am) [8] = assay: as above; type: in vivo; set-up: scale not given here; conditions: upland field foliage treatment (corn test), dose 1.6 g ai/10a, 14th day after treatment
Procedure: as §3, §4

China jute (Ab) [9] = assay: as above; type: in vivo; set-up: scale not given here; conditions: upland field foliage treatment (corn test), dose 1.6 g ai/10a, 14th day after treatment
Procedure: as §3, §4

[10] = tested on: common lambsquarters (Ch); assay: as above; type: in vivo; set-up: scale not given here; conditions: upland field foliage treatment (corn test), dose 1.6 g ai/10a, 14th day after treatment
Procedure: as §3, §4

corn (Ze) = assay: Test Example 11: crop plant selectivity by upland field foliage treatment (corn), phytotoxicity; conditions: upland field foliage treatment, dose 1.6 g ai/10a, 14th day after treatment
Procedure: as §3, §4

pale smartweed (Po) [11] = assay: Test Example 9: crop plant selectivity by upland field foliage treatment (wheat), herbicidal effects; type: in vivo; set-up: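 grade of growth control; 5 = at least 90%; 4 = 70 to 90%; 3 = 50 to 70%; 2 = 30 to 50%; 1 = 10 to 30%; 0 = under 10%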; conditions: dose 1.6 g ai/10a, 14th day after treatment
Summary of the method: (§5)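 Wheat and broadleaf weeds were sown together in sand-filled pots and grown for 2 weeks in a greenhouse before foliar treatment. Herbicidal effect on weeds and phytotoxicity to wheat were scored visually against set grading standards on day 14 after treatment, with plants kept in the greenhouse.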

slender amaranth (Am) [12] = assay: as above; type: in vivo; set-up: scale not given here; conditions: dose 1.6 g ai/10a, 14th day after treatment
Summary of the method: as §5

China jute (Ab) [13] = assay: as above; type: in vivo; set-up: scale not given here; conditions: dose 1.6 g ai/10a, 14th day after treatment
Summary of the method: as §5

[14] = tested on: common lambsquarters (Ch); assay: as above; type: in vivo; set-up: scale not given here; conditions: dose 1.6 g ai/10a, 14th day after treatment
Summary of the method: as §5

wheat (Tr) = assay: Test Example 9: crop plant selectivity by upland field foliage treatment (wheat), phytotoxicity; conditions: dose 1.6 g ai/10a, 14th day after treatment
Summary of the method: as §5

rice flatsedge (Ci) [15] = assay: Test Example 3: herbicidal effects by upland field foliage treatment; type: in vivo; set-up: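 grade of growth control; 5 = at least 90%; 4 = 70 to 90%; 3 = 50 to 70%; 2 = 30 to 50%; 1 = 10 to 30%; 0 = under 10%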; conditions: 100 g of the active ingredient per 10 ares, evaluated on the 14th day after treatment
Summary of the method: (§6)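 Weeds sown in sand-filled pots and grown 2 weeks in a greenhouse before foliage treatment. Plants then kept in the greenhouse; herbicidal effect scored on day 14 after treatment against a graded standard scale.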

pale smartweed (Po) [16] = assay: as above; type: in vivo; set-up: scale not given here; conditions: 100 g of the active ingredient per 10 ares, evaluated on the 14th day after treatment
Summary of the method: as §6

Diaitaria ciliaris (Di) = assay: as above; type: in vivo; set-up: scale not given here; conditions: 100 g of the active ingredient per 10 ares, evaluated on the 14th day after treatment
Summary of the method: as §6

slender amaranth (Am) [17] = assay: as above; type: in vivo; set-up: scale not given here; conditions: 100 g of the active ingredient per 10 ares, evaluated on the 14th day after treatment
Summary of the method: as §6

barnyardgrass (Ec) [18] = assay: as above; type: in vivo; set-up: scale not given here; conditions: 100 g of the active ingredient per 10 ares, evaluated on the 14th day after treatment
Summary of the method: as §6

[19] = tested on: common lambsquarters (Ch); assay: as above; type: in vivo; set-up: scale not given here; conditions: 100 g of the active ingredient per 10 ares, evaluated on the 14th day after treatment
Summary of the method: as §6

cotton (Go) = assay: Test Example 4: crop plant selectivity by upland field soil treatment (cotton), phytotoxicity; type: in vivo; set-up: scale not given here; conditions: dose 6.3 g ai/10 a, evaluated 21st day after application
Summary of the method: (§7)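 Cotton and weeds (incl. China jute, pale smartweed, slender amaranth) sown in sand-filled pots and covered with soil, then soil-treated. Grown in greenhouse; herbicidal effect and cotton phytotoxicity scored on day 21 after application against a rating standard.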

soybean (Gl) = assay: Test Example 6: crop plant selectivity by upland field soil treatment (soybean), phytotoxicity; type: in vivo; set-up: scale not given here; conditions: dose 6.3 g ai/10a, 21st day after application
Summary of the method: (§8)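 Seeds are sown in sand and covered with soil. The soil is treated with test compound. Pots are kept in a greenhouse. Weed control and soybean damage are rated visually 21 days after application.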

pale smartweed (Po) [20] = assay: Test Example 4: crop plant selectivity by upland field soil treatment (cotton), herbicidal effects; type: in vivo; set-up: scale not given here; conditions: dose 6.3 g ai/10 a, evaluated 21st day after application
Summary of the method: as §7

green foxtail (Se) [21] = assay: as above; type: in vivo; set-up: scale not given here; conditions: dose 6.3 g ai/10 a, evaluated 21st day after application
Summary of the method: as §7

slender amaranth (Am) [22] = assay: as above; type: in vivo; set-up: scale not given here; conditions: dose 6.3 g ai/10 a, evaluated 21st day after application
Summary of the method: as §7

China jute (Ab) [23] = assay: as above; type: in vivo; set-up: scale not given here; conditions: dose 6.3 g ai/10 a, evaluated 21st day after application
Summary of the method: as §7

[24] = tested on: common lambsquarters (Ch); assay: as above; type: in vivo; set-up: scale not given here; conditions: dose 6.3 g ai/10 a, evaluated 21st day after application
Summary of the method: as §7

pale smartweed (Po) [25] = assay: Test Example 6: crop plant selectivity by upland field soil treatment (soybean), herbicidal effects; type: in vivo; set-up: scale not given here; conditions: dose 6.3 g ai/10a, 21st day after application
Summary of the method: as §8

green foxtail (Se) [26] = assay: as above; type: in vivo; set-up: scale not given here; conditions: dose 6.3 g ai/10a, 21st day after application
Summary of the method: as §8

slender amaranth (Am) [27] = assay: as above; type: in vivo; set-up: scale not given here; conditions: dose 6.3 g ai/10a, 21st day after application
Summary of the method: as §8

China jute (Ab) [28] = assay: as above; type: in vivo; set-up: scale not given here; conditions: dose 6.3 g ai/10a, 21st day after application
Summary of the method: as §8

[29] = tested on: common lambsquarters (Ch); assay: as above; type: in vivo; set-up: scale not given here; conditions: dose 6.3 g ai/10a, 21st day after application
Summary of the method: as §8

[30] = 21st day after the application, index 0-5 of Table 47
[31] = evaluated on the 21st day after application

Row | Compound | Herbicidal effects Ci (rice flatsedge (Ci) [1]; [30]) | Herbicidal effects Mo (monochoria (Mo)) | Herbicidal effects Sc (bulrush (Sc)) | Herbicidal effects Ec (barnyardgrass (Ec) [6]) | Herbicidal effects Po (pale smartweed (Po) [7]) | Herbicidal effects Am (slender amaranth (Am) [8]) | Herbicidal effects Ab (China jute (Ab) [9]) | Herbicidal effects Ch [10] | Phytotoxicity Ze (corn (Ze)) | Herbicidal effects Po (pale smartweed (Po) [11]) | Herbicidal effects Am (slender amaranth (Am) [12]) | Herbicidal effects Ab (China jute (Ab) [13]) | Herbicidal effects Ch [14] | Phytotoxicity Tr (wheat (Tr)) | Herbicidal effects Ci (rice flatsedge (Ci) [15]) | Herbicidal effects Po (pale smartweed (Po) [16]) | Herbicidal effects Di (Diaitaria ciliaris (Di)) | Herbicidal effects Am (slender amaranth (Am) [17]) | Herbicidal effects Ec (barnyardgrass (Ec) [18]) | Herbicidal effects Ch [19] | further results
1 | Cn1c(C(F)(F)F)ccc(-c2cc(C(=O)OCCBr)c(Cl)cc2F)c1=O [1-134] | 5 | 5 | 5 | 5 | 5 | 5 | 5 | 5 | 2 | 5 | 5 | 5 | 5 | 2 | 5 | 5 | 5 | 5 | 5 | 5 | Herbicidal effects Po (pale smartweed (Po) [2]; [30]): 5; Herbicidal effects Di (Digitaria ciliaris (Di); [30]): 5; Herbicidal effects Am (slender amaranth (Am) [3]; [30]): 5; Herbicidal effects Ec (barnyardgrass (Ec) [4]; [30]): 5; Herbicidal effects Ch [5, 30]: 5
2 | C#CCOc1cc(-c2ccc(C(F)(F)F)n(C)c2=O)ccc1Cl [1-106] | 5 | 5 | 5 | 5 | 5 | 5 | 5 | 5 | 2 | 5 | 5 | 5 | 5 | 2 | 5 | 5 | 5 | 5 | 5 | 5 | Herbicidal effects Po (pale smartweed (Po) [2]; [30]): 5; Herbicidal effects Di (Digitaria ciliaris (Di); [30]): 5; Herbicidal effects Am (slender amaranth (Am) [3]; [30]): 5; Herbicidal effects Ec (barnyardgrass (Ec) [4]; [30]): 5; Herbicidal effects Ch [5, 30]: 5
3 | COCOc1cc(-c2ccc(C(F)(F)F)n(C)c2=O)c(Cl)cc1Cl [1-38] | 5 | 5 | 5 | 5 | 5 | 5 | 5 | 5 | 2 | 5 | 5 | 5 | 5 | 2 | 5 | 5 | 5 | 5 | 5 | 5 | Herbicidal effects Po (pale smartweed (Po) [2]; [30]): 5; Herbicidal effects Di (Digitaria ciliaris (Di); [30]): 5; Herbicidal effects Am (slender amaranth (Am) [3]; [30]): 5; Herbicidal effects Ec (barnyardgrass (Ec) [4]; [30]): 5; Herbicidal effects Ch [5, 30]: 5
4 | COCCOc1cc(-c2ccc(C(F)(F)F)n(C)c2=O)c(F)cc1Cl [1-170] |  | 5 | 5 | 5 | 5 | 5 | 5 | 5 | 0 | 5 | 5 | 5 | 5 | 1 | 5 | 5 | 5 | 5 | 5 | 5 | Herbicidal effects Ci (rice flatsedge (Ci) [1]; [31]): 5; Herbicidal effects Po (pale smartweed (Po) [2]; [31]): 5; Herbicidal effects Di (Digitaria ciliaris (Di); [31]): 5; Herbicidal effects Am (slender amaranth (Am) [3]; [31]): 5; Herbicidal effects Ec (barnyardgrass (Ec) [4]; [31]): 5; Herbicidal effects Ch [5, 31]: 5; Phytotoxicity Go (cotton (Go)): 1; Phytotoxicity Gl (soybean (Gl)): 2; Herbicidal effects Po (pale smartweed (Po) [20]): 5; Herbicidal effects Se (green foxtail (Se) [21]): 5; Herbicidal effects Am (slender amaranth (Am) [22]): 5; Herbicidal effects Ab (China jute (Ab) [23]): 5; Herbicidal effects Ch [24]: 5; Herbicidal effects Po (pale smartweed (Po) [25]): 5; Herbicidal effects Se (green foxtail (Se) [26]): 5; Herbicidal effects Am (slender amaranth (Am) [27]): 5; Herbicidal effects Ab (China jute (Ab) [28]): 5; Herbicidal effects Ch [29]: 5
